In patent publication US20110053923A1, “CHEMICAL COMPOUNDS 610” (AstraZeneca, priority 2008, published 2011):
Where two headings read alike, the source gives them in different places.

Key:
mTOR = mTOR (Homo sapiens, UniProt P42345); assay: Enzyme - mTOR Kinase Assay (Echo); assay type: biochemical; settings: recombinant FLAG-tagged mTOR (1362-2549); AlphaScreen; ATP 20 μM;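 note: enzyme expressed in HEK293 cells, 2 h incubation at room temperature, read-out is phosphorylation of a biotinylated peptide substrate detected with an anti-phospho p70 S6 Kinase (T389) antibody, inhibition lowers signal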
ATR = molecular target: T1, ATR (Homo sapiens, UniProt Q13535); assay: Enzyme Assay - ATR (Test (a)); assay type: biochemical;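 note: kinase activity of bead-bound ATR toward a GST-p53 N-terminal fragment substrate, 1 h at 37 °C, read by chemiluminescence, with inhibitor-free wells as control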
T1 construct: obtained from HeLa nuclear extract (CIL Biotech, Mons, Belgium) by immunoprecipitation with rabbit polyclonal antiserum raised to amino acids 400-480 of ATR; host or cells: HeLa nuclear extract

[1] = ATR immunoprecipitated from HeLa nuclear extract, 3 μM ATP, average of individual tests, read-out: ATR average IC50

mTOR, sequence (P42345 1362-2549): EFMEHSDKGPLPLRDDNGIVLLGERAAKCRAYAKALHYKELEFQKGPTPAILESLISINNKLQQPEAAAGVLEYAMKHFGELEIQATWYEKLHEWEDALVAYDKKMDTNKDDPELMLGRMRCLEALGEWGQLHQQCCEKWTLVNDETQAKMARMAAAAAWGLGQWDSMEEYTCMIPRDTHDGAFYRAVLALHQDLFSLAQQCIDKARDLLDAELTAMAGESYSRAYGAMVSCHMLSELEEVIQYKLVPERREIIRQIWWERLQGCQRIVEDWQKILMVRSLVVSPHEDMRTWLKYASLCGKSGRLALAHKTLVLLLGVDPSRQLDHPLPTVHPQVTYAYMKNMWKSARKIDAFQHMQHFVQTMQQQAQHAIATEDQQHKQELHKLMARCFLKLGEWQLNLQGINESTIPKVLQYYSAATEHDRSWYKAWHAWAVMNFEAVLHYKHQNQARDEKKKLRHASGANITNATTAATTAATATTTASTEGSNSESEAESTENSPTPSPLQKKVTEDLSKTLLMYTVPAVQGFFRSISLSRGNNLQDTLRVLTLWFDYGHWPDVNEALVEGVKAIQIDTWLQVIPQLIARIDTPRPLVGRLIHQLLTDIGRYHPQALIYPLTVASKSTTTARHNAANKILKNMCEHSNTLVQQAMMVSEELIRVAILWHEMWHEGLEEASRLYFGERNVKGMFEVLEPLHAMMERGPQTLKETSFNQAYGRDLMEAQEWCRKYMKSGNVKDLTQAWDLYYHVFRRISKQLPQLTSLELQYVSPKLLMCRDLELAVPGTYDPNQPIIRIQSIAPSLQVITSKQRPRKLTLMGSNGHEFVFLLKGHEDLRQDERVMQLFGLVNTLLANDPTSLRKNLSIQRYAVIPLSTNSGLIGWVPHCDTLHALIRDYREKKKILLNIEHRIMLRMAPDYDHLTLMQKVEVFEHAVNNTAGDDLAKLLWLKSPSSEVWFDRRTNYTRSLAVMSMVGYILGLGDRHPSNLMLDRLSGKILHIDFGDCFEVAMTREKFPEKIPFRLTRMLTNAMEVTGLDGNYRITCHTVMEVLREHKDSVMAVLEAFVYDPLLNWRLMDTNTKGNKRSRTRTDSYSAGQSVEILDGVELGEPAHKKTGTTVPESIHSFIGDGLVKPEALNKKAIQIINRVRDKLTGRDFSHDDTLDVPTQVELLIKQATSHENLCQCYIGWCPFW
T1 sequence (Q13535 whole entry, the tested form may be a part): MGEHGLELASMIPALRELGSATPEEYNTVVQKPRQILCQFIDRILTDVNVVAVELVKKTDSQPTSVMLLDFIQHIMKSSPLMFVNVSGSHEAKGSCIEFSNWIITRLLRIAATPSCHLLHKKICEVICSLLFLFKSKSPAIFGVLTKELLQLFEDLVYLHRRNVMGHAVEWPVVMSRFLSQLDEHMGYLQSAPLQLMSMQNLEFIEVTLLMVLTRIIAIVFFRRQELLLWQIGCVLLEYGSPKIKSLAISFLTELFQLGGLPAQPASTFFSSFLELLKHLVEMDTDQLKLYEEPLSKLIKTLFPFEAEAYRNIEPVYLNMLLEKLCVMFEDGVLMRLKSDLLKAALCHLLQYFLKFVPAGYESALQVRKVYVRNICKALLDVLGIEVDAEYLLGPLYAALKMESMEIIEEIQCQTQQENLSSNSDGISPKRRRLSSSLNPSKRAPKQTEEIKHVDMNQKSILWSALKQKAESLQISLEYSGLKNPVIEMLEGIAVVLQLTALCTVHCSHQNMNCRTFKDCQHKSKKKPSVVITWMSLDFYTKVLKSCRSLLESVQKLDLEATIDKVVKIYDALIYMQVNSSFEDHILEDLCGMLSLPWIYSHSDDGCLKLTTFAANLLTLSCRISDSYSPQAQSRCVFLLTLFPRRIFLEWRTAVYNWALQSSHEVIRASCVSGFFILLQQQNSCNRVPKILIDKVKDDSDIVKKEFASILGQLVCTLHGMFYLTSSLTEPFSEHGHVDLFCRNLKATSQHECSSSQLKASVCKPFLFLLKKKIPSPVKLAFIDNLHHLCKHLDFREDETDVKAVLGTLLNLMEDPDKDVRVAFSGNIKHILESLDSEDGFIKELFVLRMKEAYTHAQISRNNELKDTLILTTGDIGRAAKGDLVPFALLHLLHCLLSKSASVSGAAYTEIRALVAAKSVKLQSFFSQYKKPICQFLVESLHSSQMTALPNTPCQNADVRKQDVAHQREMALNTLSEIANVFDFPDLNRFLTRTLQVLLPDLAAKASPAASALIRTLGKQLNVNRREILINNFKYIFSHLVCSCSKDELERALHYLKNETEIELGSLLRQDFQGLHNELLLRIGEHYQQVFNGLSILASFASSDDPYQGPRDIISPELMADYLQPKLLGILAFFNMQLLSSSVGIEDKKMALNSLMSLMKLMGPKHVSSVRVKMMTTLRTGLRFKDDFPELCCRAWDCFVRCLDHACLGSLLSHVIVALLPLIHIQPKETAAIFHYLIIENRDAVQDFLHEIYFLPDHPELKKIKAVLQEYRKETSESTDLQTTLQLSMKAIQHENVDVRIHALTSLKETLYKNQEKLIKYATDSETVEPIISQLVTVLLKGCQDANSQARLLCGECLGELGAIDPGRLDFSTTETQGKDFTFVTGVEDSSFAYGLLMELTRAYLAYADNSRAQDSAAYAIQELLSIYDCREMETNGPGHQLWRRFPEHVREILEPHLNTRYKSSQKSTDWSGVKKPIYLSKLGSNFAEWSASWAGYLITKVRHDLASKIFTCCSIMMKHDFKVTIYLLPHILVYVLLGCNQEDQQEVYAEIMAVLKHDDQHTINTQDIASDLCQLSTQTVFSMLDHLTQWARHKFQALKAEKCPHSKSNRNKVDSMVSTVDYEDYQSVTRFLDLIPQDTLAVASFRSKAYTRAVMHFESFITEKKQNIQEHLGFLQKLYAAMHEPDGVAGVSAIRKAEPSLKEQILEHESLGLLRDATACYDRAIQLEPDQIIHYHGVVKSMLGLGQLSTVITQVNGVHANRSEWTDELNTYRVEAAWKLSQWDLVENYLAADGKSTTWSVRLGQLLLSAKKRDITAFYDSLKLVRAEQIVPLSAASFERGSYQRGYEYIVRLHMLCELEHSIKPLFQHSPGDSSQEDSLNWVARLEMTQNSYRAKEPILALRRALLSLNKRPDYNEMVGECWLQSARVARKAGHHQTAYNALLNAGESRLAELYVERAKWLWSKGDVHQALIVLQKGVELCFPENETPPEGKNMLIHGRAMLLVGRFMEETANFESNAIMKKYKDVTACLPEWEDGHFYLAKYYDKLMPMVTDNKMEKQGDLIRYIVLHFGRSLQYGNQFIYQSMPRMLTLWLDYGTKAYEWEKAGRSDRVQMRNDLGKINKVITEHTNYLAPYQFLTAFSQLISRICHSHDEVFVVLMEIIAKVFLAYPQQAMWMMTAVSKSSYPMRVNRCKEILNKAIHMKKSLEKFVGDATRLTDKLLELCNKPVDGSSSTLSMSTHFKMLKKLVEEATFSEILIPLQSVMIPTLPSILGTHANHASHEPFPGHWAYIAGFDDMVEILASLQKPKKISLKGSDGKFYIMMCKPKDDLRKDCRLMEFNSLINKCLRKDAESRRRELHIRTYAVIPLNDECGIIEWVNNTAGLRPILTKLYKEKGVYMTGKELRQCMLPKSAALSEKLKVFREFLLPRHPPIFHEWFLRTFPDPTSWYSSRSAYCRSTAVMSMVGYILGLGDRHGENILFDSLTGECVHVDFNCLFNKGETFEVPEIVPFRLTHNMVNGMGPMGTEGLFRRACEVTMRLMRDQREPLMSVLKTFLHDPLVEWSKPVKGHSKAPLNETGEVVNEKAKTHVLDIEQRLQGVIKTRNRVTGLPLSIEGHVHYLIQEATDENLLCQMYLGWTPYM
T1 sequence (Q8WXE1 whole entry partner, the tested form may be a part): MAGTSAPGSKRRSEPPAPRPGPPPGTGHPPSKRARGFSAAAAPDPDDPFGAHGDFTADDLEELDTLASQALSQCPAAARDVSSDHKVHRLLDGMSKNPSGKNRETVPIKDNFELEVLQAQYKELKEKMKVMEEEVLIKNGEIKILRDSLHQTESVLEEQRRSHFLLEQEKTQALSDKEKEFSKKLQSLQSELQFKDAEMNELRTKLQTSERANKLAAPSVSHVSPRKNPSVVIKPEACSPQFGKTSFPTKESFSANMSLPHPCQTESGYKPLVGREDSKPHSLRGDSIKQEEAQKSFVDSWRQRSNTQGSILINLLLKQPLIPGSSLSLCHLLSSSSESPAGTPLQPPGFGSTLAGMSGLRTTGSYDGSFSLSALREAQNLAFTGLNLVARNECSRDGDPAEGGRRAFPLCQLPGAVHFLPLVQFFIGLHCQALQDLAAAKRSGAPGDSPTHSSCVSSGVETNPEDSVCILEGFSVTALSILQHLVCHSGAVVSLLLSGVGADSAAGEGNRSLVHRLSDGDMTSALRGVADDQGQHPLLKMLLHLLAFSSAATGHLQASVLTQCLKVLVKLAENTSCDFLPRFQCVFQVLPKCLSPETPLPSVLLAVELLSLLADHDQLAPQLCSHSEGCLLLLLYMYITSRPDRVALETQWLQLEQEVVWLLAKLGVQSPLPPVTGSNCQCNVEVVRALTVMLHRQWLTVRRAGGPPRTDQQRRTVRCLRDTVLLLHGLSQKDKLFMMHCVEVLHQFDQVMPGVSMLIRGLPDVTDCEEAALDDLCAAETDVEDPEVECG

Row | SMILES | IC50 (mTOR) | IC50 (ATR; [1]) | IC50 (ATR)
1 | CS(=O)(=O)C1(c2cc(N3CCOCC3)nc(-c3cccc4[nH]ccc34)n2)CC1 [Example 1.01, 4-{4-[1-(Methylsulfonyl)cyclopropyl]-6-morpholin-4-ylpyrimidin-2-yl}-1H-indole] | 179 nM | – | –
2 | Cc1cc(-c2nc(N3CCOCC3)cc(C3(S(C)(=O)=O)CC3)n2)c2cc[nH]c2c1 [Example 1.02, 6-Methyl-4-{4-[1-(methylsulfonyl)cyclopropyl]-6-morpholin-4-ylpyrimidin-2-yl}-1H-indole] | 110 nM | 7.67 nM | –
3 | Cc1cc2c(-c3nc(N4CCOCC4)cc(C4(S(C)(=O)=O)CC4)n3)cccc2[nH]1 [Example 1.03, 2-Methyl-4-{4-[1-(methylsulfonyl)cyclopropyl]-6-morpholin-4-ylpyrimidin-2-yl}-1H-indole] | 166 nM | – | 27.5 nM
4 | CS(=O)(=O)C1(c2cc(N3CCOCC3)nc(-c3cc(C#N)cc4[nH]ccc34)n2)CC1 [Example 1.05, 4-{4-[1-(methylsulfonyl)cyclopropyl]-6-morpholin-4-ylpyrimidin-2-yl}-1H-indole-6-carbonitrile] | 326 nM | 65.9 nM | –
5 | CS(=O)(=O)C1(c2cc(N3CCOCC3)nc(-c3cc(Cl)cc4[nH]ccc34)n2)CC1 [Example 1.06, 6-chloro-4-{4-[1-(methylsulfonyl)cyclopropyl]-6-morpholin-4-ylpyrimidin-2-yl}-1H-indole] | 71.2 nM | 15.8 nM | –
6 | CS(=O)(=O)C1(c2cc(N3CCOCC3)nc(-c3cccc4[nH]ccc34)n2)CCNCC1 [Example 1.08, 4-{4-[4-(Methylsulfonyl)piperidin-4-yl]-6-morpholin-4-ylpyrimidin-2-yl}-1H-indole] | 231 nM | 9.44 nM | –
7 | CS(=O)(=O)C1(c2cc(N3CCOCC3)nc(-c3cccc4[nH]ccc34)n2)CCOCC1 [Example 1.09, 4-{4-[4-(Methylsulfonyl)tetrahydro-2H-pyran-4-yl]-6-morpholin-4-ylpyrimidin-2-yl}-1H-indole] | – | 3.74 nM | –
8 | CCS(=O)(=O)C1(c2cc(N3CCOCC3)nc(-c3cccc4[nH]ccc34)n2)CC1 [Example 1.10, 4-{4-[1-(ethylsulfonyl)cyclopropyl]-6-morpholin-4-ylpyrimidin-2-yl}-1H-indole] | 95.8 nM | 15 nM | –
9 | CC(C)S(=O)(=O)C1(c2cc(N3CCOCC3)nc(-c3cccc4[nH]ccc34)n2)CC1 [Example 1.11, 4-(4-{1-[(1-methylethyl)sulfonyl]cyclopropyl}-6-morpholin-4-ylpyrimidin-2-yl)-1H-indole] | 122 nM | 13.2 nM | –
10 | O=S(=O)(C1CC1)C1(c2cc(N3CCOCC3)nc(-c3cccc4[nH]ccc34)n2)CC1 [Example 1.12, 4-{4-[1-(cyclopropylsulfonyl)cyclopropyl]-6-morpholin-4-ylpyrimidin-2-yl}-1H-indole] | > 90000 nM | 32.1 nM | –
11 | O=S(=O)(C1CC1)C1(c2cc(N3CCOCC3)nc(-c3cccc4[nH]ccc34)n2)CCOCC1 [Example 1.13, 4-{4-[4-(cyclopropylsulfonyl)tetrahydro-2H-pyran-4-yl]-6-morpholin-4-ylpyrimidin-2-yl}-1H-indole] | 1240 nM | 58.3 nM | –
12 | O=S(=O)(C1CC1)C1(c2cc(N3CCOCC3)nc(-c3cccc4[nH]ccc34)n2)CCNCC1 [Example 1.14, 4-{4-[4-(cyclopropylsulfonyl)piperidin-4-yl]-6-morpholin-4-ylpyrimidin-2-yl}-1H-indole] | 1460 nM | 22.4 nM | –
13 | C[C@H]1COCCN1c1cc(C2(S(=O)(=O)C3CC3)CCNCC2)nc(-c2cccc3[nH]ccc23)n1 [Example 2.01, 4-{4-[4-(Cyclopropylsulfonyl)piperidin-4-yl]-6-[(3S)-3-methylmorpholin-4-yl]pyrimidin-2-yl}-1H-indole] | 497 nM | 26.8 nM | –
14 | C[C@H]1COCCN1c1cc(C2(S(=O)(=O)C3CC3)CCOCC2)nc(-c2cccc3[nH]ccc23)n1 [Example 2.02, 4-{4-[4-(Cyclopropylsulfonyl)tetrahydro-2H-pyran-4-yl]-6-[(3S)-3-methylmorpholin-4-yl]pyrimidin-2-yl}-1H-indole] | 467 nM | 376 nM | –
15 | C[C@H]1COCCN1c1cc(C2(S(C)(=O)=O)CCCC2)nc(-c2cccc3[nH]ccc23)n1 [Example 2.03, 4-{4-[(3S)-3-Methylmorpholin-4-yl]-6-[1-(methylsulfonyl)cyclopentyl]pyrimidin-2-yl}-1H-indole] | 99 nM | 6.21 nM | –
16 | C[C@H]1COCCN1c1cc(C2(S(C)(=O)=O)CCOCC2)nc(-c2cccc3[nH]ccc23)n1 [Example 2.04, 4-{4-[(3S)-3-Methylmorpholin-4-yl]-6-[4-(methylsulfonyl)tetrahydro-2H-pyran-4-yl]pyrimidin-2-yl}-1H-indole] | 300 nM | 4.55 nM | –
17 | Cc1cc(-c2nc(N3CCOC[C@H]3C)cc(C3(S(C)(=O)=O)CC3)n2)c2cc[nH]c2c1 [Example 3.02, 6-Methyl-4-{4-[(3R)-3-methylmorpholin-4-yl]-6-[1-(methylsulfonyl)cyclopropyl]pyrimidin-2-yl}-1H-indole] | 97.1 nM | 6.67 nM | –
18 | Cc1cc2c(-c3nc(N4CCOC[C@H]4C)cc(C4(S(C)(=O)=O)CC4)n3)cccc2[nH]1 [Example 3.03, 2-Methyl-4-{4-[(3R)-3-methylmorpholin-4-yl]-6-[1-(methylsulfonyl)cyclopropyl]pyrimidin-2-yl}-1H-indole] | 46.3 nM | 5.46 nM | –
19 | C[C@@H]1COCCN1c1cc(C2(S(C)(=O)=O)CC2)nc(-c2cc(C#N)cc3[nH]ccc23)n1 [Example 3.04, 4-{4-[(3R)-3-Methylmorpholin-4-yl]-6-[1-(methylsulfonyl)cyclopropyl]pyrimidin-2-yl}-1H-indole-6-carbonitrile] | 207 nM | 35.5 nM | –
20 | C[C@@H]1COCCN1c1cc(C2(S(C)(=O)=O)CC2)nc(-c2cc(Cl)cc3[nH]ccc23)n1 [Example 3.05, 6-chloro-4-{4-[(3R)-3-methylmorpholin-4-yl}-6-[1-(methylsulfonyl)cyclopropyl]pyrimidin-2-yl}-1H-indole] | 54.6 nM | 4.23 nM | –
21 | C[C@@H]1COCCN1c1cc(C2(S(C)(=O)=O)CC2)nc(-c2cc(F)cc3[nH]ccc23)n1 [Example 3.06] | 38 nM | 3.45 nM | –
22 | COc1cc(-c2nc(N3CCOC[C@H]3C)cc(C3(S(C)(=O)=O)CC3)n2)c2cc[nH]c2c1 [Example 3.07, 6-methoxy-4-{4-[(3R)-3-methylmorphohn-4-yl]-6-[1-(methylsulfonyl)cyclopropyl]pyrimidin-2-yl}-1H-indole] | 24.1 nM | 12.4 nM | –
23 | C[C@@H]1COC[C@H](C)N1c1cc(C2(S(C)(=O)=O)CC2)nc(-c2cccc3[nH]ccc23)n1 [Example 4.01, 4-{4-[(3S,5R)-3,5-Dimethylmorpholin-4-yl]-6-[1-(methylsulfonyl)cyclopropyl]pyrimidin-2-yl}-1H-indole] | – | 20.2 nM | –
24 | CS(=O)(=O)C1(c2cc(N3CC4CCC(C3)O4)nc(-c3cccc4[nH]ccc34)n2)CC1 [Example 5.01, 4-{4-[1-(Methylsulfonyl)cyclopropyl]-6-(8-oxa-3-azabicyclo[3.2.1]oct-3-yl)pyrimidin-2-yl}-1H-indole] | 21 nM | – | –
